Earlier results on one compound are cited in patent publication US5945412A, “Methods and compositions for preventing and treating bone loss” (Merck & Co., Inc., priority 1997, dated 1999).

Molecules are shown by their SMILES.

The test system of the data set is human type 2 enzyme (5α-reductase). The conditions noted are these: background statement.

For `CC(C)(C)NC(=O)[C@H]1CC[C@H]2[C@@H]3CC[C@H]4NC(=O)C=C[C@]4(C)[C@H]3CC[C@]12C` [Finasteride, 17β-(N-tert-butylcarbamoyl)-3-oxo-4-aza-5α-androst-1-en-3-one], the “inhibition of the human type 2 enzyme (in words)” value is listed as “potent inhibitor”.
